Results taken from US4731109A, “Herbicidal 2-haloacetanilides” (Monsanto Company, priority 1982, dated 1988).
Read-outs that look alike come from different tables or passages of the source.

How the values were obtained:
[1] = test system: Barnyardgrass; test: Field pre-emergence selectivity test; format: in vivo; conditions: Echinochloa crus-galli, 1008 h, 6 weeks, read-out: Percent Inhibition; for inhibition at 560 g/ha: 0.56 Kg/Ha; for inhibition at 1120 g/ha: 1.12 Kg/Ha; for inhibition at 2240 g/ha: 2.24 Kg/Ha; for inhibition at 4480 g/ha: 4.48 Kg/Ha
Experimental: (§1) The compound of Examples 1 and 2 was also tested in the field to determine its pre-emergence selectivity against foxtail (spp), barnyardgrass, wild proso millet, smartweed, lambsquarters and pigweed in a plurality of crops; the data (representing three replicate runs) are shown in Table VII for both surface application (S.A.) and soil incorporation (PPI, i.e., preplant incorporation) of the herbicide. The seeds were planted in a fine seedbed of silt loam of intermediate moisture. The seeds were planted at a depth of two inches (5.08 cm). First rainfall (0.2"; 0.51 cm) occurred the day following treatment, the second rain (0.25"; […]) two days after treatment; cumulative rainfall 22 days after treatment was 1.8" (4.57 cm). Observations were made 6 weeks after treatment.

[2] = test system: Bush Bean; test: Field pre-emergence selectivity test; format: in vivo; conditions: 1008 h, 6 weeks, read-out: Percent Inhibition; for inhibition at 560 g/ha: 0.56 Kg/Ha; for inhibition at 1120 g/ha: 1.12 Kg/Ha; for inhibition at 2240 g/ha: 2.24 Kg/Ha; for inhibition at 4480 g/ha: 4.48 Kg/Ha
Experimental: as §1

[3] = test system: Field Corn; test: Field pre-emergence selectivity test; format: in vivo; conditions: Zea mays, 1008 h, 6 weeks, read-out: Percent Inhibition; for inhibition at 560 g/ha: 0.56 Kg/Ha; for inhibition at 1120 g/ha: 1.12 Kg/Ha; for inhibition at 2240 g/ha: 2.24 Kg/Ha; for inhibition at 4480 g/ha: 4.48 Kg/Ha
Experimental: as §1

[4] = test system: Smartweed; test: Field pre-emergence selectivity test; format: in vivo; conditions: 1008 h, 6 weeks, read-out: Percent Inhibition; for inhibition at 560 g/ha: 0.56 Kg/Ha; for inhibition at 2240 g/ha: 2.24 Kg/Ha; for inhibition at 4480 g/ha: 4.48 Kg/Ha
Experimental: as §1

[5] = test system: Sorghum; test: Field pre-emergence selectivity test; format: in vivo; conditions: 1008 h, 6 weeks, read-out: Percent Inhibition; for inhibition at 560 g/ha: 0.56 Kg/Ha; for inhibition at 1120 g/ha: 1.12 Kg/Ha; for inhibition at 2240 g/ha: 2.24 Kg/Ha; for inhibition at 4480 g/ha: 4.48 Kg/Ha
Experimental: as §1

[6] = test system: foxtail (spp); test: Field pre-emergence selectivity test; format: in vivo; conditions: Setaria, 1008 h, 6 weeks, read-out: Percent Inhibition; for inhibition at 560 g/ha: 0.56 Kg/Ha; for inhibition at 1120 g/ha: 1.12 Kg/Ha; for inhibition at 2240 g/ha: 2.24 Kg/Ha; for inhibition at 4480 g/ha: 4.48 Kg/Ha
Experimental: as §1

[7] = test system: pigweed; test: Field pre-emergence selectivity test; format: in vivo; conditions: Amaranthus retroflexus, 1008 h, 6 weeks, read-out: Percent Inhibition; for inhibition at 560 g/ha: 0.56 Kg/Ha; for inhibition at 1120 g/ha: 1.12 Kg/Ha
Experimental: as §1

[8] = test system: soybeans; test: Field pre-emergence selectivity test; format: in vivo; conditions: Glycine max, 1008 h, 6 weeks, read-out: Percent Inhibition; for inhibition at 560 g/ha: 0.56 Kg/Ha; for inhibition at 1120 g/ha: 1.12 Kg/Ha; for inhibition at 2240 g/ha: 2.24 Kg/Ha; for inhibition at 4480 g/ha: 4.48 Kg/Ha
Experimental: as §1

[9] = test system: wild proso millet; test: Field pre-emergence selectivity test; format: in vivo; conditions: 1008 h, 6 weeks, read-out: Percent Inhibition; for inhibition at 560 g/ha: 0.56 Kg/Ha; for inhibition at 1120 g/ha: 1.12 Kg/Ha; for inhibition at 2240 g/ha: 2.24 Kg/Ha; for inhibition at 4480 g/ha: 4.48 Kg/Ha
Experimental: as §1

[10] = test system: Pennsylvania smartweed; test: Field tests, selectivity; format: in vivo; conditions: in soybeans, P.P.I., 8 WAT
Text: (§2) In the discussion and tables of data below, reference is made to herbicide application rates symbolized as "GR15 " and "GR85 "; these rates are given in kilograms per hectare (kg/ha) which are convertible into pounds per acre (lbs/A) by dividing the kg/ha rate by 1.12.
(§3) A further guide to the effectiveness of a chemical as a selective herbicide is the "selectivity factor" ("SF") for a herbicide in given crops and weeds. The selectivity factor is a measure of the relative degree of crop safety and weed injury and is expressed in terms of the GR15 /GR85 ratio, i.e., the GR15 rate for the crop divided by the GR85 rate for the weed, both rates in kg/ha (lb/A). In the tables below, selectivity factors are shown in parenthesis following the GR85 rate for each weed; the symbol "NS" indicates "non-selective". Marginal or undetermined selectivity is indicated by a dash (--).
(§4) It will be understood by those skilled in the art that not all of the named weeds are selectively controlled in all of the named crops under all conditions of climate, soil, moisture and/or herbicide application modes. Selectivity data for control of the foregoing weeds in the crops soybeans, corn, cotton and peanuts from a plurality of field tests in various locations under various conditions of soil, moisture, etc., is shown collectively in Tables VIII-XI, respectively.

[11] = test system: corn; test: Field tests, selectivity; format: in vivo
Text: as §2, §3, §4

[12] = test system: purple nutsedge; test: Field tests, selectivity; format: in vivo; conditions: in cotton
Text: as §2, §3, §4

[13] = Toxicology studies, LD50; conditions: in vivo
Text: Toxicology studies on the compound of Example 1 have indicated the compound to be quite safe. […] No special handling procedures beyond normal precautions are deemed necessary.

CCOCN(C(=O)CCl)c1c(C)cccc1C(F)(F)F [Example 1, N-(ethoxymethyl)-2'-trifluoromethyl-6'-methyl-2-chloroacetanilide]
inhibition at 560 g/ha ([1]; P.P.I.): 75%
inhibition at 1120 g/ha ([1]; P.P.I.): 93%
inhibition at 2240 g/ha ([1]; P.P.I.): 98%
inhibition at 4480 g/ha ([1]; P.P.I.): 100%
inhibition at 560 g/ha ([1]; S.A.): 63%
inhibition at 1120 g/ha ([1]; S.A.): 93%
inhibition at 2240 g/ha ([1]; S.A.): 93%
inhibition at 4480 g/ha ([1]; S.A.): 98%
inhibition at 560 g/ha ([2]; P.P.I.): 23%
inhibition at 1120 g/ha ([2]; P.P.I.): 10%
inhibition at 2240 g/ha ([2]; P.P.I.): 37%
inhibition at 4480 g/ha ([2]; P.P.I.): 43%
inhibition at 560 g/ha ([2]; S.A.): 0%
inhibition at 1120 g/ha ([2]; S.A.): 8%
inhibition at 2240 g/ha ([2]; S.A.): 20%
inhibition at 4480 g/ha ([2]; S.A.): 32%
inhibition at 560 g/ha ([3]; P.P.I.): 0%
inhibition at 1120 g/ha ([3]; P.P.I.): 0%
inhibition at 2240 g/ha ([3]; P.P.I.): 5%
inhibition at 4480 g/ha ([3]; P.P.I.): 32%
inhibition at 560 g/ha ([3]; S.A.): 0%
inhibition at 1120 g/ha ([3]; S.A.): 0%
inhibition at 2240 g/ha ([3]; S.A.): 0%
inhibition at 4480 g/ha ([3]; S.A.): 15%
inhibition at 560 g/ha ([4]; P.P.I.): 20%
inhibition at 2240 g/ha ([4]; P.P.I.): 75%
inhibition at 4480 g/ha ([4]; P.P.I.): 85%
inhibition at 560 g/ha ([4]; S.A.): 0%
inhibition at 1120 g/ha ([4]; S.A., 1.12 Kg/Ha): 0%
inhibition at 2240 g/ha ([4]; S.A.): 50%
inhibition at 4480 g/ha ([4]; S.A.): 90%
inhibition at 560 g/ha ([5]; P.P.I.): 32%
inhibition at 1120 g/ha ([5]; P.P.I.): 53%
inhibition at 2240 g/ha ([5]; P.P.I.): 92%
inhibition at 4480 g/ha ([5]; P.P.I.): 98%
inhibition at 560 g/ha ([5]; S.A.): 0%
inhibition at 1120 g/ha ([5]; S.A.): 3%
inhibition at 2240 g/ha ([5]; S.A.): 17%
inhibition at 4480 g/ha ([5]; S.A.): 77%
inhibition at 560 g/ha ([6]; P.P.I.): 75%
inhibition at 1120 g/ha ([6]; P.P.I.): 90%
inhibition at 2240 g/ha ([6]; P.P.I.): 98%
inhibition at 4480 g/ha ([6]; P.P.I.): 100%
inhibition at 560 g/ha ([6]; S.A.): 62%
inhibition at 1120 g/ha ([6]; S.A.): 92%
inhibition at 2240 g/ha ([6]; S.A.): 93%
inhibition at 4480 g/ha ([6]; S.A.): 98%
inhibition at 560 g/ha ([7]; P.P.I.): 50%
inhibition at 1120 g/ha ([7]; P.P.I.): 85%
inhibition at 2240 g/ha ([7]; P.P.I., 2.24 Kg/Ha): 85%
inhibition at 4480 g/ha ([7]; P.P.I., 4.48 Kg/Ha): 95%
inhibition at 560 g/ha ([7]; S.A.): 0%
inhibition at 1120 g/ha ([7]; S.A.): 0%
inhibition at 560 g/ha ([8]; P.P.I.): 5%
inhibition at 1120 g/ha ([8]; P.P.I.): 7%
inhibition at 2240 g/ha ([8]; P.P.I.): 20%
inhibition at 4480 g/ha ([8]; P.P.I.): 40%
inhibition at 560 g/ha ([8]; S.A.): 0%
inhibition at 1120 g/ha ([8]; S.A.): 5%
inhibition at 2240 g/ha ([8]; S.A.): 0%
inhibition at 4480 g/ha ([8]; S.A.): 13%
inhibition at 560 g/ha ([9]; P.P.I.): 23%
inhibition at 1120 g/ha ([9]; P.P.I.): 58%
inhibition at 2240 g/ha ([9]; P.P.I.): 80%
inhibition at 4480 g/ha ([9]; P.P.I.): 85%
inhibition at 560 g/ha ([9]; S.A.): 63%
inhibition at 1120 g/ha ([9]; S.A.): 83%
inhibition at 2240 g/ha ([9]; S.A.): 95%
inhibition at 4480 g/ha ([9]; S.A.): 97%
GR85 [10]: 2.5 kg/ha
S.F. (GR15/GR85) [10]: 2
GR15 ([11]; Corn/Cocklebur, P.P.I., 3 WAT): 4.8 kg/ha
GR15 ([11]; Corn/Cocklebur, P.P.I., 6 WAT): 4.8 kg/ha
GR15 ([11]; Corn/Cocklebur, S.A., 3 WAT): > 4.5 kg/ha
GR15 ([11]; Corn/Cocklebur, S.A., 6 WAT): > 4.5 kg/ha
GR15 ([11]; Corn/Giant foxtail, P.P.I., 6 WAT): 4.8 kg/ha
GR15 ([11]; Corn/Giant foxtail, P.P.I., 6.5 WAT): > 6.7 kg/ha
GR15 ([11]; Corn/Giant foxtail, S.A., 6 WAT): 4.5 kg/ha
GR15 ([11]; Corn/Giant foxtail, S.A., 6.5 WAT): > 7.8 kg/ha
GR15 ([11]; Corn/Morningglory, P.P.I., 3 WAT): 4.8 kg/ha
GR15 ([11]; Corn/Morningglory, P.P.I., 6 WAT): 4.8 kg/ha
GR15 ([11]; Corn/Morningglory, S.A., 3 WAT): > 4.5 kg/ha
GR15 ([11]; Corn/Morningglory, S.A., 6 WAT): > 4.5 kg/ha
GR85 ([12]; P.P.I., 6 WAT): 4.2 kg/ha
GR85 ([12]; S.A., 6 WAT): 1.7 kg/ha
S.F. (GR15/GR85) ([12]; S.A., 6 WAT): 2
GR85 ([12]; S.A., 9 WAT): 2.2 kg/ha
S.F. (GR15/GR85) ([12]; S.A., 9 WAT): 1.5
toxicity [13]: slightly toxic
LD50 ([13]; po, read-out: OLD50): 2300 mg/kg
LD50 ([13]; read-out: MLD50): > 5010 mg/kg
